Reference: patent US20170354148A1, “SAFENED HERBICIDAL COMPOSITIONS CONTAINING HALAUXIFEN AND METHODS OF USE THEREOF IN BRASSICA SPECIES” (Dow AgroSciences LLC, priority 2016, published 2017)
Where two headings read alike, the source gives them in different places.

Experiments:
[1] = system: winter oilseed rape (Brassica napus, BRSNW); assay: Example 5 greenhouse trials, postemergence visual injury; conditions: for % Visual Injury Obs / Visual Injury Obs: BRSNW
[2] = system: Roundup Ready® canola (Brassica napus, RR-BRSNN); assay: as above; conditions: for % Visual Injury Obs / Visual Injury Obs: RR-BRSNN
[3] = system: rutabaga (Brassica napus var. napobrassica, BRSNA); assay: as above; conditions: for % Visual Injury Obs / Visual Injury Obs: BRSNA
[4] = system: Nexera™ canola (Brassica napus, BRSNN-NEX); assay: as above; conditions: for % Visual Injury Obs / Visual Injury Obs: BRSNN-NEX
[5] = system: kale/Chinese kale (Brassica alboglabra, BRSAG); assay: as above; conditions: for % Visual Injury Obs / Visual Injury Obs: BRSAG
[6] = system: turnip or Polish canola (Brassica rapa, BRSRR); assay: as above; conditions: for % Visual Injury Obs / Visual Injury Obs: BRSRR
[7] = system: Aparima Gold swede (Brassica sp., BRSSS); assay: Example 1 pot trials, postemergence crop safety, visual phytotoxicity
[8] = system: Aparima Gold swede (Brassica sp., BRSSS); assay: Example 2 field trials (Canterbury, New Zealand), postemergence crop safety, visual phytotoxicity
[9] = system: rutabaga (Brassica napus var. napobrassica, BRSNA); conditions: in vivo
[10] = system: Nexera™ canola (Brassica napus, BRSNN-NEX); conditions: in vivo
[11] = system: Roundup Ready® canola (Brassica napus, RR-BRSNN); conditions: in vivo
[12] = system: winter oilseed rape (Brassica napus, BRSNW); conditions: in vivo
[13] = system: kale/Chinese kale (Brassica alboglabra, BRSAG); conditions: in vivo
[14] = system: turnip or Polish canola (Brassica rapa, BRSRR); conditions: in vivo
[15] = system: Spring Argentine canola (Brassica napus, BRSNS); assay: Example 3 field trials (Canada), postemergence crop safety, visual phytotoxicity; conditions: alone or mixed

CCOC(=O)C1=NN(c2ccc(Cl)cc2Cl)C(C)(C(=O)OCC)C1 (racemic) [Mefenpyr-diethyl, diethyl (RS)-1-(2,4-dichlorophenyl)-5-methyl-2-pyrazoline-3,5-dicarboxylate]
0%: Percent (%) Visual Injury BRSNW Obs ([1]; safener alone 5 g ai/ha) | Percent (%) Visual Injury BRSNW Obs ([1]; safener alone 10 g ai/ha) | Percent (%) Visual Injury BRSNW Obs ([1]; safener alone 20 g ai/ha) | Percent (%) Visual Injury BRSNW Obs ([1]; safener alone 40 g ai/ha) | Percent (%) Visual Injury RR-BRSNN Obs ([2]; safener alone 5 g ai/ha) | Percent (%) Visual Injury RR-BRSNN Obs ([2]; safener alone 10 g ai/ha) | Percent (%) Visual Injury RR-BRSNN Obs ([2]; safener alone 20 g ai/ha) | Percent (%) Visual Injury RR-BRSNN Obs ([2]; safener alone 40 g ai/ha) | Percent (%) Visual Injury BRSNA Obs ([3]; safener alone 5 g ai/ha) | Percent (%) Visual Injury BRSNA Obs ([3]; safener alone 10 g ai/ha) | Percent (%) Visual Injury BRSNA Obs ([3]; safener alone 20 g ai/ha) | Percent (%) Visual Injury BRSNA Obs ([3]; safener alone 40 g ai/ha) | Percent (%) Visual Injury BRSNN-NEX Obs ([4]; safener alone 5 g ai/ha) | Percent (%) Visual Injury BRSNN-NEX Obs ([4]; safener alone 10 g ai/ha) | Percent (%) Visual Injury BRSNN-NEX Obs ([4]; safener alone 20 g ai/ha) | Percent (%) Visual Injury BRSNN-NEX Obs ([4]; safener alone 40 g ai/ha) | Percent (%) Visual Injury BRSAG Obs ([5]; safener alone 5 g ai/ha) | Percent (%) Visual Injury BRSAG Obs ([5]; safener alone 10 g ai/ha) | Percent (%) Visual Injury BRSAG Obs ([5]; safener alone 20 g ai/ha) | Percent (%) Visual Injury BRSAG Obs ([5]; safener alone 40 g ai/ha) | Percent (%) Visual Injury BRSRR Obs ([6]; safener alone 5 g ai/ha) | Percent (%) Visual Injury BRSRR Obs ([6]; safener alone 10 g ai/ha) | Percent (%) Visual Injury BRSRR Obs ([6]; safener alone 20 g ai/ha) | Percent (%) Visual Injury BRSRR Obs ([6]; safener alone 40 g ai/ha)

O=C(O)c1nc(Cl)ccc1Cl [Clopyralid-TIPA, (2RS,2′RS,2″RS)-tris(2-hydroxypropyl)ammonium 3,6-dichloropyridine-2-carboxylate]
6.0%: Mean % Visual Growth Inhibition ([8]; 56DAA1, 45 g ae/ha)
2.2%: Mean % Visual Injury ([7]; 3DAA1, 90 g ae/ha)
7.0%: Mean % Visual Growth Inhibition ([8]; 22DAA1, 180 g ae/ha)
2.8%: Mean % Visual Injury ([8]; 28DAA1, 45 g ae/ha)
8.0%: Mean % Visual Growth Inhibition ([8]; 22DAA1, 90 g ae/ha)
2.0%: Mean % Visual Growth Inhibition ([8]; 22DAA1, 45 g ae/ha) | Mean % Visual Growth Inhibition ([8]; 56DAA1, 90 g ae/ha)
0.4%: Mean % Visual Injury ([7]; 7DAA1, 90 g ae/ha)
3.0%: Mean % Visual Injury ([8]; 28DAA1, 180 g ae/ha)
0.5%: Mean % Visual Injury ([8]; 22DAA1, 90 g ae/ha) | Mean % Visual Injury ([8]; 22DAA1, 180 g ae/ha)
5.0%: Mean % Visual Growth Inhibition ([8]; 28DAA1, 90 g ae/ha)
4.5%: Mean % Visual Injury ([8]; 28DAA1, 90 g ae/ha)
4.0%: Mean % Visual Growth Inhibition ([8]; 56DAA1, 180 g ae/ha)
2.5%: Mean % Visual Growth Inhibition ([8]; 28DAA1, 45 g ae/ha)
0.0%: Mean % Visual Injury ([7]; 15DAA1, 90 g ae/ha) | Mean % Visual Injury ([7]; 28DAA1, 90 g ae/ha)

NCCO.O=C(O)c1nc(Cl)ccc1Cl [Clopyralidolamine]
0%: % Visual Injury Obs [9] | % Visual Injury Obs [10] | % Visual Injury Obs [11] | % Visual Injury Obs [12] | % Visual Injury Obs [13] | % Visual Injury Obs [14]

O=C(O)c1c(Cl)ccc2cc(Cl)cnc12 [Quinclorac, 3,7-dichloro-8-quinolinecarboxylic acid]
0.5%: Mean % Visual Injury ([15]; Table 21, 40DAAA, halauxifen-methyl 5, quinclorac 101 g ae/ha) | Mean % Visual Injury ([15]; Table 22, 40DAAA, halauxifen-methyl 5, clopyralid-olamine 150, quinclorac 101 g ae/ha) | Mean % Visual Injury ([15]; Table 27, 49DAAA, halauxifen-methyl 5, quinclorac 101 g ae/ha) | Mean % Visual Injury ([15]; Table 28, 49DAAA, halauxifen-methyl 5, clopyralid-olamine 150, quinclorac 101 g ae/ha)
5.3%: Mean % Visual Injury ([15]; Table 27, 32DAAA, halauxifen-methyl 5, quinclorac 101 g ae/ha) | Mean % Visual Injury ([15]; Table 28, 32DAAA, halauxifen-methyl 5, clopyralid-olamine 150, quinclorac 101 g ae/ha)
1.8%: Mean % Visual Injury ([15]; Table 27, 17DAAA, halauxifen-methyl 5, quinclorac 101 g ae/ha) | Mean % Visual Injury ([15]; Table 28, 17DAAA, halauxifen-methyl 5, clopyralid-olamine 150, quinclorac 101 g ae/ha)
0.0%: Mean % Visual Injury ([15]; Table 21, 81DAAA, halauxifen-methyl 5, quinclorac 101 g ae/ha) | Mean % Visual Injury ([15]; Table 22, 81DAAA, halauxifen-methyl 5, clopyralid-olamine 150, quinclorac 101 g ae/ha)
3.5%: Mean % Visual Injury ([15]; Table 21, 8DAAA, halauxifen-methyl 5, quinclorac 101 g ae/ha) | Mean % Visual Injury ([15]; Table 22, 8DAAA, halauxifen-methyl 5, clopyralid-olamine 150, quinclorac 101 g ae/ha)
0.8%: Mean % Visual Injury ([15]; Table 14, 7DAAA, halauxifen-methyl 5, quinclorac 101 g ae/ha) | Mean % Visual Injury ([15]; Table 15, 7DAAA, halauxifen-methyl 5, clopyralid-olamine 150, quinclorac 101 g ae/ha)
0%: % Visual Injury Obs ([1]; 50 g ai/ha alone, 20-22 d) | % Visual Injury Obs ([1]; 100 g ai/ha alone, 20-22 d) | % Visual Injury Obs ([1]; 200 g ai/ha alone, 20-22 d) | % Visual Injury Obs ([1]; quinclorac 50 g ai/ha) | Visual Injury Obs ([1]; quinclorac 50 g ai/ha) | % Visual Injury Obs ([1]; quinclorac 100 g ai/ha) | Visual Injury Obs ([1]; quinclorac 100 g ai/ha) | % Visual Injury Obs ([1]; quinclorac 200 g ai/ha) | Visual Injury Obs ([1]; quinclorac 200 g ai/ha) | % Visual Injury Obs ([2]; 50 g ai/ha alone, 20-22 d) | % Visual Injury Obs ([2]; 100 g ai/ha alone, 20-22 d) | % Visual Injury Obs ([2]; 200 g ai/ha alone, 20-22 d) | % Visual Injury Obs ([2]; quinclorac 50 g ai/ha) | Visual Injury Obs ([2]; quinclorac 50 g ai/ha) | % Visual Injury Obs ([2]; quinclorac 100 g ai/ha) | Visual Injury Obs ([2]; quinclorac 100 g ai/ha) | % Visual Injury Obs ([2]; quinclorac 200 g ai/ha) | Visual Injury Obs ([2]; quinclorac 200 g ai/ha) | % Visual Injury Obs ([3]; 50 g ai/ha alone, 20-22 d) | % Visual Injury Obs ([3]; 100 g ai/ha alone, 20-22 d) | % Visual Injury Obs ([3]; 200 g ai/ha alone, 20-22 d) | % Visual Injury Obs ([3]; quinclorac 50 g ai/ha) | Visual Injury Obs ([3]; quinclorac 50 g ai/ha) | % Visual Injury Obs ([3]; quinclorac 100 g ai/ha) | Visual Injury Obs ([3]; quinclorac 100 g ai/ha) | % Visual Injury Obs ([3]; quinclorac 200 g ai/ha) | Visual Injury Obs ([3]; quinclorac 200 g ai/ha) | % Visual Injury Obs ([4]; 50 g ai/ha alone, 20-22 d) | % Visual Injury Obs ([4]; 100 g ai/ha alone, 20-22 d) | % Visual Injury Obs ([4]; 200 g ai/ha alone, 20-22 d) | % Visual Injury Obs ([4]; quinclorac 50 g ai/ha) | Visual Injury Obs ([4]; quinclorac 50 g ai/ha) | % Visual Injury Obs ([4]; quinclorac 100 g ai/ha) | Visual Injury Obs ([4]; quinclorac 100 g ai/ha) | % Visual Injury Obs ([4]; quinclorac 200 g ai/ha) | Visual Injury Obs ([4]; quinclorac 200 g ai/ha) | % Visual Injury Obs ([5]; 50 g ai/ha alone, 20-22 d) | % Visual Injury Obs ([5]; 100 g ai/ha alone, 20-22 d) | % Visual Injury Obs ([5]; 200 g ai/ha alone, 20-22 d) | % Visual Injury Obs ([5]; quinclorac 50 g ai/ha) | Visual Injury Obs ([5]; quinclorac 50 g ai/ha) | % Visual Injury Obs ([5]; quinclorac 100 g ai/ha) | Visual Injury Obs ([5]; quinclorac 100 g ai/ha) | % Visual Injury Obs ([5]; quinclorac 200 g ai/ha) | Visual Injury Obs ([5]; quinclorac 200 g ai/ha) | % Visual Injury Obs ([6]; 50 g ai/ha alone, 20-22 d) | % Visual Injury Obs ([6]; 100 g ai/ha alone, 20-22 d) | % Visual Injury Obs ([6]; 200 g ai/ha alone, 20-22 d) | % Visual Injury Obs ([6]; quinclorac 50 g ai/ha) | Visual Injury Obs ([6]; quinclorac 50 g ai/ha) | % Visual Injury Obs ([6]; quinclorac 100 g ai/ha) | Visual Injury Obs ([6]; quinclorac 100 g ai/ha) | % Visual Injury Obs ([6]; quinclorac 200 g ai/ha) | Visual Injury Obs ([6]; quinclorac 200 g ai/ha)
3.0%: Mean % Visual Injury ([15]; Table 14, 27DAAA, halauxifen-methyl 5, quinclorac 101 g ae/ha) | Mean % Visual Injury ([15]; Table 15, 27DAAA, halauxifen-methyl 5, clopyralid-olamine 150, quinclorac 101 g ae/ha)
1.0%: Mean % Visual Injury ([15]; Table 14, 15DAAA, halauxifen-methyl 5, quinclorac 101 g ae/ha) | Mean % Visual Injury ([15]; Table 15, 15DAAA, halauxifen-methyl 5, clopyralid-olamine 150, quinclorac 101 g ae/ha) | Mean % Visual Injury ([15]; Table 21, 14DAAA, halauxifen-methyl 5, quinclorac 101 g ae/ha) | Mean % Visual Injury ([15]; Table 22, 14DAAA, halauxifen-methyl 5, clopyralid-olamine 150, quinclorac 101 g ae/ha)
2.3%: Mean % Visual Injury ([15]; Table 27, 7DAAA, halauxifen-methyl 5, quinclorac 101 g ae/ha) | Mean % Visual Injury ([15]; Table 28, 7DAAA, halauxifen-methyl 5, clopyralid-olamine 150, quinclorac 101 g ae/ha)
1.5%: Mean % Visual Injury ([15]; Table 14, 57DAAA, halauxifen-methyl 5, quinclorac 101 g ae/ha) | Mean % Visual Injury ([15]; Table 15, 57DAAA, halauxifen-methyl 5, clopyralid-olamine 150, quinclorac 101 g ae/ha)
